Assay results taken from article PMC11403733, “Asymmetric Dirhodium-Catalyzed Modification of Immunomodulatory Imide Drugs and Their Biological Assessment” (ACS Medicinal Chemistry Letters, 2024).
Several values for one entry are separate records, joined by “and”; a condition that tells them apart may be missing. Equal entries are not always repeated.

Key:
IKZF3 (Aiolos) = molecular target: T1, IKZF3 (Aiolos) (Homo sapiens, UniProt Q96SW2+Q9UKT9); test: HiBiT degradation assay, DF15/HiBiT-IKZF3 KI cells; format: cell-based; settings: N ≥ 3; for EC50: degradation, 4 hr incubation, top conc 10 uM; for IKZF3 Ymin: depth of degradation (100% = no reduction of protein level, 0% = complete degradation), 4 hr
T1 construct: endogenous in cells; host or cells: DF15 (HiBiT knock-in)
Experimental: (§1) Section 6: Assay Protocols
(§2) Fluorescence Resonance Energy Transfer-Based NSD@ PWWP Cereblon Binding Assay. […]
(§3) Compounds for testing were spotted into a 1536 well plate (Greiner Cat#782075). CRBN and Tracer solution were incubated in compound wells for 20 minutes. Detection mix containing Anti6xHis Tb Crytate (CisBio Cat#61HI2TLF) was then added to assay wells for a final 0.5x assay concentration of detection antibody (stock is provided at 400x). Plates were incubated for 30 minutes before being read on Pherastar FSX plate reader using TR-FRET module (Excitation 340nm, Emssion 615/665nm). ePL and HiBiT degradation assays
(§4) DF15 cells overexpressing ePL tagged GSPT1 (DF15/GSPT1 ePL OE) was used to monitor the degradation of GSPT1 induced by experimental compounds. MDS-L cells overexpressing ePL tagged CK1α and GSPT1G575N (MDS-L/CK1α ePL OE_ GSPT1G575N OE) was used to monitor the degradation of CK1α induced by experimental compounds. NCCIT cells with HiBiT tag knocked in at the c-terminus of SALL4 (NCCIT/SALL4-HiBiT KI) was used to monitor the degradation of SALL4 induced by experimental compounds. DF15 cells with HiBiT tag knocked in at the n-terminus of IKZF3 (DF15/HiBiT-IKZF3 KI) was used to monitor the degradation of AIOLOS (IKZF3) induced by experimental compounds. […]
(§5) The cell culture medium recipes, seeding densities and compound incubation time with cells are […]
(§6) Ta r g e t Cell line Cell culture medium Seeding Compound
(§7) (HI) FBS, 1mM sodium pyruvate, 25mM Hepes, 0.1% pluronic acid,
(§8) GSPT1G575N OE ng/mL of human recombinant IL3 […]
(§9) sodium pyruvate, 25mM Hepes, 0.1% pluronic acid, 1X NEAA
(§10) For all degradation assays, compounds were pre-spotted in a 153 6 well plate (Corning 3727) starting at 10uM with 3-fold serial dilution down 11 points in replicates using an Echo 650 series acoustic liquid handler. 5uL/well cells were seeded in the assay ready plate at the density and in […]
(§11) The final DMSO concentration in the cell culture was 0.25%. The plates were equilibrated at room temperature for 30 minutes before putting into a 37 °C CO2 incubator. After appropriate incubation period, plates were retrieved from the incubator and set at room temperature to equilibrate for 30 minutes, before adding ePL or HiBiT detection reagent. For ePL detection, the pre-prepared mixture of EA reagent, lysis buffer, and substrate reagent at ratio 1:1:4 from the DiscoverX InCELL Detection Kit (Eurofins 96-0079L) according to the manufacturer ’s recommendation was added 3ul/well into the plate. Plates were incubated in the dark for 1hr at room temperature before reading using a BMG PheraStar luminescence reader. For HiBiT detection, Nano-Glo HiBiT Lytic Reagent (Promega, N3050) prepared according to the manufacturer ’s recommendation was added 3 uL/well into the plate. Plates were incubated 30 minutes at room temperature in the dark before reading using a BMG PheraStar […]
(§12) To determine EC50 values for degradation, a four parameter logistic model (Sigmoidal Dose-Response Model) (FIT= (A+((B-A)/1+((C/x)^D)))) C is the inflection point (EC50), D is […] , A and B are the low and high limits of the fit respectively) was used to determine the compound’s EC50 value, which is the half maximum effective concentration. In the degradation assays, the Yconst of each compound was calculated by normalizing the lowest point of the fitted curve to the media only control, which is 0%, and the cells treated with DMSO control, which is 100%. All degradation curves were processed and evaluated using Dotmatics.
(§13) Section 7: Biological Data Tables

CK1α = molecular target: T2, CK1α (Homo sapiens, UniProt P48729+Q96SW2); test: ePL degradation assay, MDS-L/CK1α ePL OE_GSPT1G575N OE cells; format: cell-based; settings: for EC50: degradation, 4 hr incubation, top conc 10 uM, N ≥ 3, read-out: CK1a EC50; for CK1a Ymin: depth of degradation (100% = no reduction, 0% = complete degradation), 4 hr, N ≥ 3
T2 construct: expressed in transfected cells; host or cells: MDS-L
Experimental: as §1, §2, §3, §4, §5, §6, §7, §8, §9, §10, §11, §12, §13

SALL4 = molecular target: T3, SALL4 (Homo sapiens, UniProt Q96SW2+Q9UJQ4); test: HiBiT degradation assay, NCCIT/SALL4-HiBiT KI cells; format: cell-based; settings: N ≥ 3; for EC50: degradation, 2 hr incubation, top conc 10 uM; for SALL4 Ymin: depth of degradation (100% = no reduction, 0% = complete degradation), 2 hr
T3 construct: endogenous in cells; host or cells: NCCIT (HiBiT knock-in)
Experimental: as §1, §2, §3, §4, §5, §6, §7, §8, §9, §10, §11, §12, §13

CRBN = molecular target: T4, CRBN (Homo sapiens, UniProt Q96SW2); test: Fluorescence Resonance Energy Transfer-Based Cereblon Binding Assay (CRBN HTRF); settings: 0.5 nM 6×His-CRBN-DDB1, 20 nM tracer CC0782985, TR-FRET
T4 construct: (CRBN a.a. 1−442, DDB1 a.a); made in house
Experimental: as §1, §2, §3, §4

GSPT1 = molecular target: T5, GSPT1 (Homo sapiens, UniProt P15170+Q96SW2); test: ePL degradation assay, DF15/GSPT1 ePL OE cells; format: cell-based; settings: N ≥ 3; for EC50: degradation, 20 hr incubation, top conc 10 uM; for GSPT1 Ymin: depth of degradation (100% = no reduction, 0% = complete degradation), 20 hr
T5 construct: expressed in transfected cells; host or cells: DF15
Experimental: as §1, §2, §3, §4, §5, §6, §7, §8, §9, §10, §11, §12, §13

T4 sequence (Q96SW2 whole entry): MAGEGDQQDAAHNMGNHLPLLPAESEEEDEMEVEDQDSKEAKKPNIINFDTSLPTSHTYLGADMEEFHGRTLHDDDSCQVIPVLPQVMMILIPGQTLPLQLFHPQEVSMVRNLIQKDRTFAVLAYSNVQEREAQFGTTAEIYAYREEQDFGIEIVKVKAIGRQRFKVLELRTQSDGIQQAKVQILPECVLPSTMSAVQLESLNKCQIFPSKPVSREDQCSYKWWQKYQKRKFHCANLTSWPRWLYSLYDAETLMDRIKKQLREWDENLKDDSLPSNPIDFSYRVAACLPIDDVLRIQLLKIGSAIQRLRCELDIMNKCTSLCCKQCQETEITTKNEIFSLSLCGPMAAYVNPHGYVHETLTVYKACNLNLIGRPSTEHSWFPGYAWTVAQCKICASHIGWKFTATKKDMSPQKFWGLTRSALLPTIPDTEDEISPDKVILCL
T4 sequence (Q16531 whole entry partner): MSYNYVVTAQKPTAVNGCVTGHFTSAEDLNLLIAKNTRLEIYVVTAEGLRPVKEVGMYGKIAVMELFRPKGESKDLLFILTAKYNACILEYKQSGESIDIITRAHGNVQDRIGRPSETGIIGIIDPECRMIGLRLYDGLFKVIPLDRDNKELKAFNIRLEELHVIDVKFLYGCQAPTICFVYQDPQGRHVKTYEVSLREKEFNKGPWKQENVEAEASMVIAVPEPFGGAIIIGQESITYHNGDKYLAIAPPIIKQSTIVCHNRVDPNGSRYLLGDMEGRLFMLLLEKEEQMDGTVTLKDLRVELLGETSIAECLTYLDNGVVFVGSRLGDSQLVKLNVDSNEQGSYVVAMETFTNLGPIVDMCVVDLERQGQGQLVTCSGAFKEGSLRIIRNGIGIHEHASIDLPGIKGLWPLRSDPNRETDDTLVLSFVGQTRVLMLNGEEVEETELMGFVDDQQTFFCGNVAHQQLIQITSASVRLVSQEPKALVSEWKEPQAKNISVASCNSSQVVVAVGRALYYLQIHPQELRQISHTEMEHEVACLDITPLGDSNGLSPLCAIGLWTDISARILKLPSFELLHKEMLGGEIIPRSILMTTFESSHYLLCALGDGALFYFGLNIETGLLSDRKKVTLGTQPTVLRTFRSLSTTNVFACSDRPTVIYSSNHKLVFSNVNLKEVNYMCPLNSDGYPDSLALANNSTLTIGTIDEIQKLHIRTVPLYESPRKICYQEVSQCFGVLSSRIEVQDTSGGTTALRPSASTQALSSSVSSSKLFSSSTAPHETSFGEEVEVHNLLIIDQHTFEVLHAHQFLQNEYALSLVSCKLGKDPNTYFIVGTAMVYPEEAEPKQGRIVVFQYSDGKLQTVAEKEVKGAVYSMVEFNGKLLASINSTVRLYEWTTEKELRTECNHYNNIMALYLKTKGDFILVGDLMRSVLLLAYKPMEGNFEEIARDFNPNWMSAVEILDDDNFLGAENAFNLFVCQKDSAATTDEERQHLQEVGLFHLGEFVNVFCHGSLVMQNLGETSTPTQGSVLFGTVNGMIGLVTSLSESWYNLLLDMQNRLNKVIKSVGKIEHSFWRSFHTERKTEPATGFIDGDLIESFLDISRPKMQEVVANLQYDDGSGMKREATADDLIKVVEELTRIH
T1 sequence (Q9UKT9 whole entry): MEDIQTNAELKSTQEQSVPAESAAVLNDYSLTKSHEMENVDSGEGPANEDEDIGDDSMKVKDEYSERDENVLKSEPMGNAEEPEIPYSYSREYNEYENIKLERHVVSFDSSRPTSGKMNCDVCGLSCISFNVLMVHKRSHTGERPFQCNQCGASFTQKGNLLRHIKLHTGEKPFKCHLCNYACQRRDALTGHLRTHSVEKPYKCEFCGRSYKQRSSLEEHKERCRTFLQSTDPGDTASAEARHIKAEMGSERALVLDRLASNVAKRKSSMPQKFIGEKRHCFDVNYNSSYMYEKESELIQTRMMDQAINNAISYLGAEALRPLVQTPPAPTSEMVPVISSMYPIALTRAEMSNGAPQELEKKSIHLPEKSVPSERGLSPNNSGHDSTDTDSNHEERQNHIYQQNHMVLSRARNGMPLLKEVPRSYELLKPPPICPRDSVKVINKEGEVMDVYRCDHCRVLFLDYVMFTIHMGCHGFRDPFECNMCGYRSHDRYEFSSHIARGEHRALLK
T1 sequence (Q96SW2 whole entry): as the sequence (Q96SW2 whole entry) above
T1 sequence (Q16531 whole entry partner): as the sequence (Q16531 whole entry partner) above
T2 sequence (P48729 whole entry): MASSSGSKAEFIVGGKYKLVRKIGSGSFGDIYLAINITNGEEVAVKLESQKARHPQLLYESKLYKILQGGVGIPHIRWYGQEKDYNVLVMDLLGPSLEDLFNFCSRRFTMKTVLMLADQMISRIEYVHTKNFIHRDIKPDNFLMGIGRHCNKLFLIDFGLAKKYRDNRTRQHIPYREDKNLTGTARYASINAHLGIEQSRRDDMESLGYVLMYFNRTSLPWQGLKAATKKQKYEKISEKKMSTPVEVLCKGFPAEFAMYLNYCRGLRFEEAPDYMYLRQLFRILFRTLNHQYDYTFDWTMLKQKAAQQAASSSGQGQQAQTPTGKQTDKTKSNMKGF
T2 sequence (Q96SW2 whole entry): as the sequence (Q96SW2 whole entry) above
T2 sequence (Q16531 whole entry partner): as the sequence (Q16531 whole entry partner) above
T5 sequence (P15170 1-637 isoform P15170-3): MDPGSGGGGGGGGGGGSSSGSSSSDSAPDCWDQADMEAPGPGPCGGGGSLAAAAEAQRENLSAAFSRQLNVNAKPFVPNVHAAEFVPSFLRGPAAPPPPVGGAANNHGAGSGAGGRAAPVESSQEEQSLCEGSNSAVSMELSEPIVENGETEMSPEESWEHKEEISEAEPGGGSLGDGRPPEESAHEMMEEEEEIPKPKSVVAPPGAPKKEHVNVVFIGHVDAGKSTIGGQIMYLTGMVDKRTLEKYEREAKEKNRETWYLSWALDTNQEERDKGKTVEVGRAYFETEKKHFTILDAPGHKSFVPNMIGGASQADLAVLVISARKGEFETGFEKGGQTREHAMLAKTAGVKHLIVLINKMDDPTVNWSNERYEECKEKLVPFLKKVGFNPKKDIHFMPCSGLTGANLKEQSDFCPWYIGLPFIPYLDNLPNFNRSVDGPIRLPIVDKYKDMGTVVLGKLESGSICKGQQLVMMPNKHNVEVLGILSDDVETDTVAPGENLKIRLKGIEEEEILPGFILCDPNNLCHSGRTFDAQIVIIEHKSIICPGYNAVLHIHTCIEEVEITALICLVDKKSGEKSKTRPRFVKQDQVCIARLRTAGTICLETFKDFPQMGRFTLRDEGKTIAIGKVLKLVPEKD
T5 sequence (Q96SW2 whole entry): as the sequence (Q96SW2 whole entry) above
T5 sequence (Q16531 whole entry partner): as the sequence (Q16531 whole entry partner) above
T3 sequence (Q9UJQ4 whole entry): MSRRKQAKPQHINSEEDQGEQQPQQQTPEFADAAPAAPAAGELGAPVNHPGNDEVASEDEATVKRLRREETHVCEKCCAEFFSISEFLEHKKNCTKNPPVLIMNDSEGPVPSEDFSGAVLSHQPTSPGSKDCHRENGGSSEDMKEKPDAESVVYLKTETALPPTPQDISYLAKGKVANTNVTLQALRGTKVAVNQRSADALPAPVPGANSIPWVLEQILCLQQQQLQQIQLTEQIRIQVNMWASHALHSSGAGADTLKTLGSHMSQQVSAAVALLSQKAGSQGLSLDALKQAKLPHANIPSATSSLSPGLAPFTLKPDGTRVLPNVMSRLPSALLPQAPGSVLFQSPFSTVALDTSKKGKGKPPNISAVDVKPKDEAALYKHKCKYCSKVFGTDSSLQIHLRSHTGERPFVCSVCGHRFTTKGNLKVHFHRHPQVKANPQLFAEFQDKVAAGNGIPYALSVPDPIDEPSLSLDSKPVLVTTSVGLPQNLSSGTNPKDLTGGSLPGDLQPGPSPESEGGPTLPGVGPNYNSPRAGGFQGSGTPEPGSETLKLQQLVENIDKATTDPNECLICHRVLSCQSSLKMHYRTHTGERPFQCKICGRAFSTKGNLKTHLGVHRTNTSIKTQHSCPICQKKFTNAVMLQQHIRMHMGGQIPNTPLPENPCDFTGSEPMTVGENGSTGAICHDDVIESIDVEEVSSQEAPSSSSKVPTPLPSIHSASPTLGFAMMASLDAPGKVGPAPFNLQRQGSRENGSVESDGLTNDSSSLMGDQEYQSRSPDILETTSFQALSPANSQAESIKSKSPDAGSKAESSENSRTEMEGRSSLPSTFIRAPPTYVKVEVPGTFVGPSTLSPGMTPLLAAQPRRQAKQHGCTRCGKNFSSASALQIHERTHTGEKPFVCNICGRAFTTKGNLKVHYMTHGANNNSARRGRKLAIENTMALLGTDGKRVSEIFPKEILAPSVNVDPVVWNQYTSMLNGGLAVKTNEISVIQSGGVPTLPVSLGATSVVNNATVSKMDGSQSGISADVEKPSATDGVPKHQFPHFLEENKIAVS
T3 sequence (Q96SW2 whole entry): as the sequence (Q96SW2 whole entry) above
T3 sequence (Q16531 whole entry partner): as the sequence (Q16531 whole entry partner) above

Compound	EC50 (IKZF3 (Aiolos))	IKZF3 Ymin (IKZF3 (Aiolos))	EC50 (CK1α)	CK1a Ymin (CK1α)	EC50 (SALL4)	SALL4 Ymin (SALL4)	IC50 (CRBN)	EC50 (GSPT1)	GSPT1 Ymin (GSPT1)
O=C1CCC(N2Cc3cccc([C@H]4C[C@@]4(C(=O)OCC(Cl)(Cl)Cl)c4ccc(Br)cc4)c3C2=O)C(=O)N1 (stereo partly shown) [Compound 18b]	> 10000 nM	96 ± 5.7%	> 10000 nM	91 ± 7.1%	> 10000 nM	96 ± 5.4%	> 10000 nM	> 10000 nM	83 ± 15%
O=C1CCC(N2Cc3c(cccc3C3=C[C@]3(C(=O)OCC(Cl)(Cl)Cl)c3ccc(Br)cc3)C2=O)C(=O)N1 (stereo partly shown) [Compound 19a]	12 nM		170 ± 180 nM	64 ± 4.3%	19 ± 10 nM	23 ± 4.5%	160 nM	170 ± 130 nM	64 ± 8.7%
O=C1CCC(N2Cc3c(cccc3C3=C[C@@]3(C(=O)OCC(Cl)(Cl)Cl)c3ccc(Br)cc3)C2=O)C(=O)N1 (stereo partly shown) [Compound 19b]	110 ± 50 nM	69 ± 3.3% and 69%	1500 ± 1100 nM	60 ± 7.4%	170 ± 60 nM	35 ± 5.9%	350 nM	550 ± 470 nM	66 ± 5.5%
O=C1CCC(N2C(=O)c3cccc(C4=C[C@]4(C(=O)OCC(Cl)(Cl)Cl)c4ccc(Br)cc4)c3C2=O)C(=O)N1 (stereo partly shown) [Compound 20a]	900 ± 180 nM	40 ± 2.2%	1500 ± 940 nM	56 ± 14%	560 ± 270 nM	34 ± 7.4%	4600 nM	4300 ± 1900 nM	12 ± 13%
O=C1CCC(N2Cc3cc(C4=C[C@]4(C(=O)OCC(Cl)(Cl)Cl)c4ccc(Br)cc4)ccc3C2=O)C(=O)N1 (stereo partly shown) [Compound 21a]	> 10000 nM	95 ± 7.6%	> 10000 nM	89 ± 9.3%	> 10000 nM	89 ± 4.2%	590 nM	> 10000 nM	81 ± 17%
O=C1CCC(N2Cc3cc(C4=C[C@@]4(C(=O)OCC(Cl)(Cl)Cl)c4ccc(Br)cc4)ccc3C2=O)C(=O)N1 (stereo partly shown) [Compound 21b]	4800 ± 2600 nM	79 ± 6.4%	250 ± 370 nM	57 ± 8.0%	75 ± 50 nM	68 ± 2.1%	800 nM	3300 ± 3000 nM	7.7 ± 4.7%
O=C1CCC(N2C(=O)c3ccc(C4=C[C@]4(C(=O)OCC(Cl)(Cl)Cl)c4ccc(Br)cc4)cc3C2=O)C(=O)N1 (stereo partly shown) [Compound 22a]	1300 ± 2100 nM	73 ± 6.2%	1200 ± 1200 nM	60 ± 26%	3600 ± 740 nM	67 ± 7.8%	5700 nM	1100 ± 690 nM	
O=C1CCC(N2Cc3ccc(C4=C[C@]4(C(=O)OCC(Cl)(Cl)Cl)c4ccc(Br)cc4)cc3C2=O)C(=O)N1 (stereo partly shown) [Compound 23a]	> 10000 nM	94 ± 2.3%	> 10000 nM	93 ± 10%	> 10000 nM	95 ± 6.5%	980 nM	> 10000 nM	82 ± 7.1%
O=C1CCC(N2Cc3ccc(C4=C[C@@]4(C(=O)OCC(Cl)(Cl)Cl)c4ccc(Br)cc4)cc3C2=O)C(=O)N1 (stereo partly shown) [Compound 23b]	> 10000 nM	81 ± 4.6%	> 10000 nM	95 ± 6.0%	> 10000 nM	91 ± 10%	1700 nM	> 10000 nM	88 ± 10%
O=C1CCC(N2Cc3cccc(C4=C[C@]4(C(=O)OCC(Cl)(Cl)Cl)c4ccc(Br)cc4)c3C2=O)C(=O)N1 (stereo partly shown) [Compound 24a]	> 10000 nM	97 ± 0.58%	> 10000 nM	96 ± 12%	> 10000 nM	95 ± 5.0%	2400 nM	> 10000 nM	85 ± 24%
O=C1CCC(N2Cc3cccc(C4=C[C@@]4(C(=O)OCC(Cl)(Cl)Cl)c4ccc(Br)cc4)c3C2=O)C(=O)N1 (stereo partly shown) [Compound 24b]	> 10000 nM	93 ± 2.5%	> 10000 nM	93 ± 6.8%	> 10000 nM	97 ± 5.2%	2900 nM	> 10000 nM	80 ± 4.3%
